Tests used:
Msgal1-L1 = experiment: Solid-phase binding-inhibition assay: rMsgal1-L1-HRP binding to asialofetuin (ASF) inhibited by carbohydrates; parameters: species or system Morone saxatilis; settings: for Relative inhibitory activity, Morone saxatilis: I50 normalized to Galβ1,4Glc (lactose) = 1.0, rMsgal1-L1-HRP binding to ASF, pH 8.0, 23°C, 10 mM ME
Method: Binding of the rMsgal1-L1–HRP to asialofetuin (ASF) and its inhibition by carbohydrates were assessed and optimized as reported elsewhere ([Ahmed et al., 1996], [2002]). […] Thus, the inhibition of galectin binding to immobilized ASF by mono- and oligosaccharides is a standard system to analyze the fine specificity of novel galectins. Briefly, ASF (0.5 μg/100 μl/well) in 0.1 M Na2CO3/0.02% NaN3 (pH 9.6) was adsorbed onto the plastic wells (37°C, 3 h) and the bound glycoprotein was fixed with 2% formaldehyde (37°C, 30 min). The plates were washed three times with PBS (azide-free)/0.05% Tween 20, and incubated with the Msgal1-L1–HRP conjugate (10 ng/100 μl/well for binding assays) or with a pre-incubated mixture of equal volume of conjugate and varying concentrations of test ligands (for binding-inhibition assays). After incubation (4°C, 1 h) the plates were washed with ice-cold azide-free PBS-Tween 20 buffer and the bound peroxidase activity was assayed with 2,2’-azino-bis(3-ethylbenzothiazoline-6-sulfonic acid) (ABTS) as previously described ([Ahmed et al., 1996]).
The carbohydrate-binding specificity of Msgal1-L1 was determined by analyzing the binding of the rMsgal1-L1–HRP conjugate to ASF in the presence of several saccharides in a solid-phase assay under the optimal conditions of pH and temperature established above (pH 8.0; 23°C) and under a reducing environment (10 mM ME) ([Ahmed et al., 1996], [2002]). For each test saccharide, a complete inhibition curve was obtained, and the molar concentrations that inhibited the binding of the lectin conjugate to ASF by 50% (I 50) were calculated and normalized with respect to Galβ1,4Glc (lactose), which was included in each plate as a standard ( Table 2 ). The binding-inhibition profile for Msgal1-L1 was generally similar to those for proto type galectins from zebrafish (D. rerio), toad (B. arenarum), and domestic cow (Bos taurus). […] The presence of a fucose unit linked in α1,2 to the non-reducing Gal moiety decreased the inhibitory effectiveness in about one-third as compared to lactose, most likely by steric hindrance of the protein–Gal interaction. […] A hydrophobic phenyl group linked to the reducing end of Galβ1,3GlcNAc strengthened the Msgal1-L1 interaction with the ligand 6.5-fold.

[1] = test system: proto type galectin from zebrafish (Danio rerio); settings: relative to Galβ1,4Glc = 1.0; comparison values, reference not given; cited from earlier work
[2] = test system: proto type galectin from toad (Bufo arenarum); settings: relative to Galβ1,4Glc = 1.0; comparison values, reference not given; cited from earlier work
[3] = test system: proto type galectin from domestic cow (Bos taurus); settings: relative to Galβ1,4Glc = 1.0; comparison values, reference not given; cited from earlier work

Row | Compound | Relative inhibitory activity, Morone saxatilis (Msgal1-L1) | Relative inhibitory activity, Danio rerio [1] | Relative inhibitory activity, Bufo arenarum [2] | Relative inhibitory activity, Bos taurus [3] | Inhibitory effect (in words) (Msgal1-L1; Msgal1-L1 binding inhibition) | Relative inhibitory activity, Morone saxatilis (Msgal1-L1; listed as Thiodigalactoside) | Fold less effective than lactose as inhibitor (Msgal1-L1; Msgal1-L1 binding to ASF) | Relative inhibitory activity, Morone saxatilis (Msgal1-L1; listed as Galβ1,4GlcNAc)
1 | OC[C@H]1O[C@@H](O[C@@H]2[C@@H](CO)O[C@](O)(CO)[C@H]2O)[C@H](O)[C@@H](O)[C@H]1O [Galβ1,4Fru f] | 1.9 | 1.0 | 1.0 |  |  |  |  | 
2 | OC[C@H]1O[C@@H](O[C@H]2[C@H](O)[C@H](O)C(O)O[C@@H]2CO)[C@H](O)[C@@H](O)[C@H]1O (some centres unmarked) [Galβ1,4Man] | 1.74 | 1.5 | 2.5 | 2.34 |  |  |  | 
3 | Galβ1,6GlcNAc | 0.225 | 0.03 | 0.83 | 0.12 |  |  |  | 
4 | CC(=O)N[C@H]1C(O)O[C@H](CO)[C@H](O)[C@@H]1OC1O[C@H](CO)[C@H](O)[C@H](O)[C@H]1O (some centres unmarked) [Gal1,3GalNAc] |  |  |  |  | negligible |  |  | 
5 | Nc1ccc(O[C@@H]2O[C@H](CO)[C@@H](O[C@@H]3O[C@H](CO)[C@H](O)[C@H](O)[C@H]3O)[C@H](O)[C@H]2O)cc1 [Galβ1,4Glcβ-OPhNH2 (p)] | 2 | 1.4 | 1.71 | 1.48 |  |  |  | 
6 | OC[C@H]1O[C@@H](S[C@@H]2O[C@H](CO)[C@H](O)[C@H](O)[C@H]2O)[C@H](O)[C@@H](O)[C@H]1O [Galβ1S1βGal, Thiodigalactoside] | 10.0 | 12.2 | 3.9 | 9.0 |  | approximately 10 |  | 
7 | CC(=O)N[C@H]1[C@H](O[C@H]2[C@H](O)[C@@H](CO)OC(O)[C@@H]2O)O[C@H](CO)[C@H](O)[C@@H]1O (some centres unmarked) [GalNacβ1,3Glc] | 2.8 |  | 4.45 |  |  |  |  | 
8 | CC(=O)N[C@H]1[C@@H](O[C@H]2[C@@H](O)[C@@H](CO)O[C@@H](O)[C@@H]2O[C@@H]2O[C@@H](C)[C@@H](O)[C@@H](O)[C@@H]2O)O[C@H](CO)[C@H](O)[C@@H]1O [A-trisaccharide] |  |  |  |  |  |  | threefold less effective | 
9 | CO[C@@H]1O[C@H](CO)[C@H](O)[C@H](O)[C@H]1O [Galβ-OMe] | 0.009 | 0.004 | 0.006 | 0.0044 |  |  |  | 
10 | OC[C@H]1O[C@H](OCC2O[C@@H](O)[C@H](O)[C@@H](O)[C@@H]2O)[C@H](O)[C@@H](O)[C@H]1O (some centres unmarked) [Galα1,6Glc] | 0.019 | 0.004 | 0.0075 | 0.0053 |  |  |  | 
11 | CC(=O)N[C@H]1C(O)O[C@H](CO)[C@@H](O[C@@H]2O[C@H](CO)[C@H](O)[C@H](O)[C@H]2O)[C@@H]1O (some centres unmarked) [Galβ1,4GlcNac, N-acetyllactosamine] | 3.07 | 7.9 | 3.75 | 5.54 |  |  |  | approximately 3
12 | CO[C@@H]1O[C@H](CO)[C@@H](O[C@@H]2O[C@H](CO)[C@H](O)[C@H](O)[C@H]2O)[C@H](O)[C@H]1O [Galβ1,4Glcβ(1-0)Me] | 1.74 | 2.9 | 2.14 | 1.33 |  |  |  | 
13 | CO[C@H]1O[C@H](CO)[C@H](O)[C@H](O)[C@H]1O [Galα-OMe] | 0.027 | 0.006 | 0.03 | 0.01 |  |  |  | 
14 | CO[C@H]1[C@H](O[C@H]2[C@H](O)[C@@H](O)C(O)O[C@@H]2CO)O[C@H](CO)[C@H](O)[C@@H]1O (some centres unmarked) [MeO-2Galβ1,4Glc] | 3.33 | 2.9 | 2.5 | 4.08 |  |  |  | 
15 | OC[C@H]1O[C@@H](O[C@H]2[C@@H](O)COC(O)[C@@H]2O)[C@H](O)[C@@H](O)[C@H]1O (some centres unmarked) [Galβ1,3Ara] | 4.10 | 2.1 | 1.28 | 2.56 |  |  |  | 
16 | Fucα1,2Galβ1,4Glc | 0.33 | 0.35 | 0.17 | 0.36 |  |  |  | 
17 | CC(=O)N[C@H]1[C@H](Oc2ccc([N+](=O)[O-])cc2)O[C@H](CO)[C@@H](O)[C@@H]1O[C@@H]1O[C@H](CO)[C@H](O)[C@H](O)[C@H]1O [Galβ1-3GlcNacβ-OPhNO2 (p)] | 6.5 | 2.3 | 1.78 | 4.5 |  |  |  | 
18 | O=C[C@H](O)[C@@H](O)[C@@H](O)[C@H](O)CO [Gal, D-galactose] | 0.007 | 0.004 | 0.005 | 0.0079 |  |  |  | 

— article PMC12116657, “A “proto” type galectin expressed in striped bass (Morone saxatilis) tissues is released to epidermal mucus and binds to bacterial and mucus glycans” (Frontiers in Cellular and Infection Microbiology, 2025)
